Test results from paper PMC5812345 (Chemistry (Weinheim an der Bergstrasse, Germany), 2017).

Test system: U87-stb-CXCR4 cells
Experiment: In vitro binding/uptake of 64Cu-labeled cyclotides to U87-stb-CXCR4 cells
Format: cell-based, human
Conditions: inhibitor at 10 μM

Compound: c1cc(CN2CCCNCCNCCCNCC2)ccc1CN1CCCNCCNCCCNCC1 [AMD3100]
- Reduction in bound [^64Cu]MCo-CVX-6D in the presence of excess non-radioactive inhibitor: ≈ 30%
